Test [1] relates to MSSA (Methicillin-susceptible Staphylococcus aureus). Nature of the test: Minimum inhibitory concentration (broth microdilution) and FIC index. In kind it is cell-based. The following applies: Staphylococcus aureus, MSSA, read-out: Minimum inhibitory concentration. The method, then: A serial of twofold dilution of the tested antibiotics (oxacillin, erythromycin, ampicillin, kanamycin, levofoxacin, vancomycin and doxycycline) was perform by Broth microdilution method to a final concentration of 2-512 μg/mL. The bacterial overnight culture was collected and re-suspended in the Muller-Hilton (M-H) broth. An aliquot of cell suspension (OD600=0.1) was prepared. The bacterial suspensions were plated in 96-well plate and incubated with test antibiotics at 37° C. in a 5% CO2 incubator (Table 1 to Table 4).
The […], […] and antagonism between two drugs was evaluated by the following formula:
[formula] The criteria of fractional inhibitory concentration index: […]
A general note: Broth dilution looks for growth in wells or tubes with falling amounts of substance.

For a further test, the system named is bacteria. Nature of the test: Transmission electron microscopy of treated bacteria. In kind it is cell-based. The following applies: 40 μg/mL; cultured for 10 minutes; compared with control group. The method, then: Before observed by TEM, the bacteria were cultured overnight on plate, collected and suspended in either 10 mL MHB or 10 mL MHB containing 40 μg/mL Tellimagrandin II. The bacterial solution were diluted to an optical density at 600 nm (OD600) of 0.1, and cultured for 10 minutes or 24 hours. Then, the cells were centrifuged at 10,000 rpm/min and suspended in the fixing fluid, the fixed time can not exceed 24 hours. The sample for TEM was sent to departments of Laboratory Medicine and Clinical Research, Kaohsiung Medical University Hospital (Kaohsiung, Taiwan, ROC).

The subject of test [2] is Staphylococcus aureus biofilm formation. Nature of the test: Biofilm formation. Format: cell-based. The following applies: 40 μg/mL Tellimagrandin II. The method, then: Bacteria was grown overnight (16˜18 hours) on agar plate. Then, collected and re-suspended in 0.45% sterile PBS and diluted in sterile PBS to final optical density at 600 nm (OD600) of 0.1. Polystyrene 96-well microtitre plates were filled with 150 μL of culture medium and 20 μL of bacterial solution per well. The cultures were allowed to stand at 37° C. for 18 hours. After the incubation period, cultures were removed, and microtitre plate wells were gently washed three times with 300 μL of sterile PBS to remove loosely associated bacteria, then dried at 60° C. oven for 1 hour. Samples were stained by the addition of the 2% dye solution (150 μL) to each well above the initial inoculation level and incubated for 15 minutes. The plate was then washed in fresh water. The intensity of staining was measured after the addition of 95% alcohol (150 μL) to each dry well. The samples were incubated at room temperature for 30 min, after which the OD517 values were measured on a plate reader.
Optical density cut-off value (ODc)=average OD of negative control+3× standard deviation (SD) of negative control (The interpretation of biofilm production was done according to the criteria of Srdjan et al. (APMIS 115: 891-9, 2007). MRSA 17199 were used as control strain.

For test [3], the system named is K-562 cells. As to the kind of experiment: Cell cycle analyses by flow cytometry. In kind it is cell-based, human. The following applies: 0-50 μM. The method, then: K-562 cells were plated in 15 cm dish at a density of 5×10^5 cells/mL (15 mL) and incubated at 37° C. with 5% CO2 for 16˜18 hours. Cells were collected and centrifuged at 700 rpm for 3 minutes at room temperature, and resuspended in culture medium containing 0.04% fetal bovine serum and 8 mM L-glutamine. Then, cells were incubated at 37° C. with 5% CO2 for 16˜18 hours.
Collected above cells and plated in 3 cm dishes at an initial density of 5×10^5 cells/mL (3 mL). Cells were treated with Tellimagrandin II to final concentrations of 0, 10, 20, 30, 40 and 50 μM, and then incubated at 37° C. with 5% CO2 for 12 and 24 hours.
Cells were centrifuged at a speed of 700 rpm for 5 min at 4° C. and washed once with PBS. Cells were fixed by drop-wise addition of 70% ethanol into the cell suspension. After 16˜18 hours, the ethanol-suspended cells were centrifuged at a speed of […] for 5 minutes at 4° C. and the ethanol decanted thoroughly. Cells were resuspended in PBS containing RNase A (10 μg/mL) and 1% Triton X-100 and incubated at 37° C. in a 5% CO2 incubator for 30 minutes to 1 hour. For propidium iodide (PI) staining, cells were centrifuged at 3,500 rpm for 5 minutes at room temperature and resuspended in 600 μL PBS. 25 μL of PI (20 μg/mL) solution was added to the mixture and incubated at room temperature in the dark for 1 hour. […]
(In flow cytometry, cells or beads pass a laser one at a time.)

In test [4] the test system is K-562 cells. As to the kind of experiment: ROS test (DCF-DA). In kind it is cell-based, human. The following applies: 40 μM; 2 hours. The method, then:
A radical specific fluorescent dye, 2′,7′-dichlorofluorescein (DCF-DA) was used to detect H2O2/NO-based radicals or O2— in cells respectively.
A total of 3 mL cell solution at the concentration of 1×10^6 K-562 cells per mL was cultured with 6 cm cell culture plates in an incubator supplied with 5% CO2 at 37° C. for 30 minutes so that cells could adapt to the environment. Tellimagrandin II solutions of different concentrations were added by order so that the final concentrations are 0, 30, 40 and 50 μM respectively. The solution was placed in incubator with 5% CO2 at 37° C. for 2 hours before being centrifuged at 3,500 rpm at 4° C. for 5 minutes and then being rinsed by PBS once. 2′,7′-dichlorofluorescein (DCF-DA) was added before the solution was put into dark incubator for 45 minutes and then rinsed by PBS once again. Finally, 1 mL PBS was used to resuspend the cells before BD FACScan was used to detect the fluorescent signal.

Take `O=C(OC1O[C@@H]2COC(=O)c3cc(O)c(O)c(O)c3-c3c(cc(O)c(O)c3O)C(=O)O[C@H]2[C@H](OC(=O)c2cc(O)c(O)c(O)c2)[C@H]1OC(=O)c1cc(O)c(O)c(O)c1)c1cc(O)c(O)c(O)c1` (stereo partly shown) [Tellimagrandin II]: in test [1], the MIC turned out to be 64 µg/mL. Also, the “phenotype of bacteria in electron microscopy” value in the test on bacteria was “unsmooth tooth surfaces”. In test [2] (ODc 0.167), the “OD (average OD value of the strain − ODc)” value was 0.039. Also, the “Average OD value” in test [2] (biofilm staining of strain) worked out at 0.206. In addition, in test [2] (biofilm staining of strain, replicate 1), the “Absorbance 1” value is listed as 0.153. Moreover, in test [2] (biofilm staining of strain, replicate 2), the “Absorbance 2” value was 0.259. Further, the “Absorbance 3” value in test [2] (biofilm staining of strain, replicate 3) was 0.167. Also, in test [2] (biofilm staining of strain, replicate 4), the “Absorbance 4” value is given as 0.246. The “percentage of the sub-G1 and G2/M-phase cells” value in the test with K-562 cells [3] is listed as “increased in Tellimagrandin II treatments dose-dependently”. For the same compound, in the test with K-562 cells [4], the “ROS in K-562 cells” value is on record as “observed to increase”.

These data come from patent US8975234B2, “Anti-bacterial infection, inflammation, and leukemia composition and use thereof” (priority 2011, dated 2015).
